Test results as given in US10710986B2, “PD-1/PD-L1 inhibitors” (Gilead Sciences, Inc., priority 2018, dated 2020).

Molecular target: PD-1/PD-L1 (Homo sapiens (Human), UniProt Q9NZQ7)
Test: PD-1/PD-L1 biochemical protein-protein interaction assay (ALPHA)
Settings: 0.3 nM His tagged PD-L1, 2.5 nM biotinylated Fc-PD-1, 60 minutes at 25° C., read-out: IC50 PD-L1-PD1

Sequence of PD-1/PD-L1 (Q9NZQ7 19-238): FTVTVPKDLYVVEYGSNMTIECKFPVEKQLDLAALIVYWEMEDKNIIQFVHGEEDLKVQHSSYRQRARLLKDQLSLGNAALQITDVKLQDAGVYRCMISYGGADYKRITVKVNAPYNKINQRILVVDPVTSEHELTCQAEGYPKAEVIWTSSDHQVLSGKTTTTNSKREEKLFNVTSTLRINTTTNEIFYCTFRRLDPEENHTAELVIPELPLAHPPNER

In order of rising IC50:
1. COc1nc(-c2cccc(-c3cccc(-c4cnc(CNC[C@@H]5CCC(=O)N5)c(OC)n4)c3Cl)c2Cl)cnc1CNCC1CC(=O)NC1=O (stereo partly drawn) [compound 403]  0.07 nM
2. COc1nc(-c2cccc(-c3cccc(-c4cnc(CN5CCC(c6cnccn6)C5)c(OC)n4)c3Cl)c2Cl)cnc1CNC[C@@H]1CCC(=O)N1 (stereo partly drawn) [compound 404]  0.07 nM
3. COc1nc(-c2cccc(-c3cccc(-c4cnc(CN5CC[C@H](OC)C5)c(OC)n4)c3Cl)c2Cl)cnc1CNC[C@@H]1CCC(=O)N1 [compound 430]  0.071 nM
4. COc1nc(-c2cccc(-c3cccc(-c4cnc(CN5CCC(C6CCCO6)C5)c(OC)n4)c3Cl)c2Cl)cnc1CNC[C@@H]1CCC(=O)N1 (stereo partly drawn) [compound 409]  0.124 nM
5. COc1nc(-c2cccc(-c3cccc(-c4cnc(CN5CC[C@@H](OC)C5)c(OC)n4)c3Cl)c2Cl)cnc1CNC[C@@H]1CCC(=O)N1 [compound 427]  0.136 nM
6. COc1nc(-c2cccc(-c3cccc(-c4cnc(CN5CCC(c6ncccn6)C5)c(OC)n4)c3Cl)c2Cl)cnc1CNC[C@@H]1CCC(=O)N1 (stereo partly drawn) [compound 408]  0.139 nM
7. COc1nc(-c2cccc(-c3cccc(-c4cnc(CNC5CCN(C)C(=O)C5)c(OC)n4)c3Cl)c2Cl)cnc1CNC[C@@H]1CCC(=O)N1 (stereo partly drawn) [compound 416]  0.14 nM
8. COc1nc(-c2cccc(-c3cccc(-c4cnc(CN5CC6(CCC(=O)N6)C5)c(OC)n4)c3Br)c2Cl)cnc1CN1CC2(CCC(=O)N2)C1 [compound 390]  0.146 nM
9. COc1nc(-c2cccc(-c3cccc(-c4cnc(CN5CCC(c6cccnc6)C5)c(OC)n4)c3Cl)c2Cl)cnc1CNC[C@@H]1CCC(=O)N1 (stereo partly drawn) [compound 405]  0.16 nM
10. COc1nc(-c2cccc(-c3cccc(-c4cnc(CNC[C@@H]5CCC(=O)N5)c(OC)n4)c3Cl)c2Cl)cnc1CNCC(O)CN1CCCC1 (stereo partly drawn) [compound 413]  0.162 nM
11. COc1nc(-c2cccc(-c3cccc(-c4cnc(CN5CC(OC)C5)c(OC)n4)c3Cl)c2Cl)cnc1CN1CC(OC)C1 [compound 400]  0.173 nM
12. CNCc1ncc(-c2cccc(-c3cccc(-c4cnc(CNC)c(OC)n4)c3Cl)c2Cl)nc1OC [compound 402]  0.175 nM
13. COc1nc(-c2cccc(-c3cccc(-c4cnc(CN5CCC(O)(CC#N)C5)c(OC)n4)c3Cl)c2Cl)cnc1CNC[C@@H]1CCC(=O)N1 (stereo partly drawn) [compound 407]  0.186 nM
14. COc1nc(-c2cccc(-c3cccc(-c4cnc(CNC[C@@H]5CCC(=O)N5)c(OC)n4)c3Cl)c2Cl)cnc1CNCCc1cncc(O)c1 [compound 412]  0.187 nM
15. COc1nc(-c2cccc(-c3cc(F)cc(-c4cnc(CNC[C@@H]5CCC(=O)N5)c(OC)n4)c3Cl)c2Cl)cnc1CNC[C@@H]1CCC(=O)N1 [compound 398]  0.195 nM
16. COc1nc(-c2cccc(-c3cccc(-c4cnc(CNC5CCN(C(=O)c6ccoc6)CC5)c(OC)n4)c3Cl)c2Cl)cnc1CNC[C@@H]1CCC(=O)N1 [compound 415]  0.195 nM
17. COc1nc(-c2cccc(-c3cccc(-c4cnc(CNC[C@@H]5CCC(=O)N5)c(OC)n4)c3Cl)c2Cl)cnc1CNCCc1ccccn1 [compound 417]  0.196 nM
18. COc1nc(-c2cccc(-c3cccc(-c4cnc(CN5CC6(CNC(=O)C6)C5)c(OC)n4)c3Br)c2Cl)cnc1CN1CC2(CNC(=O)C2)C1 [compound 389]  0.211 nM
19. COc1nc(-c2cccc(-c3cccc(-c4cnc(CNC[C@@H]5CCC(=O)N5)c(OC)n4)c3Cl)c2Cl)cnc1CNCc1ccccn1 [compound 418]  0.219 nM
20. COc1nc(-c2cccc(-c3cccc(-c4cnc(CN5CC(O)C5)c(OC)n4)c3Br)c2Cl)cnc1CN1CC(O)C1 [compound 391]  0.232 nM
21. COc1nc(-c2cccc(-c3cccc(-c4cnc(CN5C[C@H](O)C[C@H]5CO)c(OC)n4)c3Cl)c2Cl)cnc1CNC[C@@H]1CCC(=O)N1 [compound 423]  0.237 nM
22. COc1nc(-c2cccc(-c3cccc(-c4cnc(CNC[C@H]5CCC(=O)N5)c(OC)n4)c3Br)c2Cl)cnc1CNC[C@H]1CCC(=O)N1 [compound 392]  0.246 nM
23. COc1nc(-c2cccc(-c3cccc(-c4cnc(CNC(CO)(CO)CO)c(OC)n4)c3Cl)c2Cl)cnc1CNC[C@@H]1CCC(=O)N1 [compound 428]  0.272 nM
24. COc1nc(-c2cccc(-c3cccc(-c4cnc(CNCC5(O)CC5)c(OC)n4)c3Cl)c2Cl)cnc1CNC[C@@H]1CCC(=O)N1 [compound 426]  0.273 nM
25. COc1nc(-c2cccc(-c3cccc(-c4cnc(CN5CCC(c6ccccn6)C5)c(OC)n4)c3Cl)c2Cl)cnc1CNC[C@@H]1CCC(=O)N1 (stereo partly drawn) [compound 406]  0.28 nM
26. COc1nc(-c2cccc(-c3cccc(-c4cnc(CN(C)C)c(OC)n4)c3Cl)c2Cl)cnc1CN(C)C [compound 401]  0.295 nM
27. COc1nc(-c2cccc(-c3cccc(-c4cnc(CN5CCC(c6ccncc6)C5)c(OC)n4)c3Cl)c2Cl)cnc1CNC[C@@H]1CCC(=O)N1 (stereo partly drawn) [compound 410]  0.316 nM
28. COc1nc(-c2cccc(-c3cccc(-c4cnc(CN5CCC(C6CCOC6)C5)c(OC)n4)c3Cl)c2Cl)cnc1CNC[C@@H]1CCC(=O)N1 (stereo partly drawn) [compound 411]  0.321 nM
29. COc1nc(-c2cccc(-c3cc(F)cc(-c4cnc(CN5CC(O)C5)c(OC)n4)c3Cl)c2Cl)cnc1CN1CC(O)C1 [compound 399]  0.324 nM
30. COc1nc(-c2cccc(-c3cccc(-c4cnc(CNCC5(C#N)CC5)c(OC)n4)c3Cl)c2Cl)cnc1CNC[C@@H]1CCC(=O)N1 [compound 429]  0.349 nM
31. COc1nc(-c2cccc(-c3cccc(-c4cnc(CNC[C@@H]5CCC(=O)N5)c(OC)n4)c3Cl)c2Cl)cnc1CNCc1cccnc1 [compound 425]  0.414 nM
32. COc1nc(-c2cccc(-c3cccc(-c4cnc(CNC[C@@H]5CCC(=O)N5)c(OC)n4)c3Cl)c2Cl)cnc1CNCc1ncccn1 [compound 420]  0.449 nM
33. COc1nc(-c2cccc(-c3cccc(-c4cnc(CNC[C@@H]5CCC(=O)N5)c(OC)n4)c3Cl)c2Cl)cnc1CNCCCc1nc2ccccc2[nH]1 [compound 419]  0.542 nM
34. COc1nc(-c2cccc(-c3cccc(-c4cnc(CNC[C@@H]5CCC(=O)N5)c(OC)n4)c3Cl)c2Cl)cnc1CNCc1ccncc1 [compound 422]  0.554 nM
35. COc1ccnc2c1CN(Cc1ncc(-c3cccc(-c4cccc(-c5cnc(CNC[C@@H]6CCC(=O)N6)c(OC)n5)c4Cl)c3Cl)nc1OC)C2 [compound 414]  0.559 nM
36. COc1nc(-c2cc(F)cc(-c3cc(F)cc(-c4cnc(CNC[C@@H]5CCC(=O)N5)c(OC)n4)c3Cl)c2Cl)cnc1CNC[C@@H]1CCC(=O)N1 [compound 397]  0.561 nM
37. COc1nc(-c2cccc(-c3cccc(-c4cnc(CNC5(c6ccccn6)CC5)c(OC)n4)c3Cl)c2Cl)cnc1CNC[C@@H]1CCC(=O)N1 [compound 421]  0.603 nM
38. COc1nc(-c2cccc(-c3cccc(-c4cnc(CNC5(c6cccnc6)CC5)c(OC)n4)c3Cl)c2Cl)cnc1CNC[C@@H]1CCC(=O)N1 [compound 424]  0.617 nM
39. COc1nc(-c2cccc(-c3cccc(-c4cnc(CN5CC6(CCC(=O)N6)C5)c(OC)n4)c3Br)c2F)cnc1CN1CC2(CCC(=O)N2)C1 [compound 394]  1.78 nM
40. COc1nc(-c2cccc(-c3cccc(-c4cnc(CNC[C@@H]5CCC(=O)N5)c(OC)n4)c3Br)c2F)cnc1CNC[C@@H]1CCC(=O)N1 [compound 396]  2.02 nM
41. COc1nc(-c2cccc(-c3cccc(-c4cnc(CN5CC6(CNC(=O)C6)C5)c(OC)n4)c3Br)c2F)cnc1CN1CC2(CNC(=O)C2)C1 [compound 393]  2.23 nM
42. COc1nc(-c2cccc(-c3cccc(-c4cnc(CN5CC(O)C5)c(OC)n4)c3Br)c2F)cnc1CN1CC(O)C1 [compound 395]  9.24 nM
